# Marks after values point to notes of the source that are not given here.
# What was measured:
# Format in all cases: in vivo, mouse
# [1] = test system: APOE*3Leiden mice; test: Plasma lipids in high-fat diet fed APOE*3Leiden mice
# Description: The APOE*3Leiden mouse expresses a variant of the human apolipoprotein E3 (APOE3), the APOE*3Leiden, in addition to the human apolipoprotein C1 (APOC1).
# Studies were performed in APOE*3Leiden mice (13-15 weeks old) placed on a semi-synthetic high fat diet (24% fat w/w) with 0.25% cholesterol w/w. After a 4-week run-in period, mice were sub-divided into groups of 5 mice each and administration of Compound A, Compound B, or vehicle alone was started. Both Compound B and Compound A were administered at a dose of 0.3 mmol/kg bw/day via diet. Sunflower oil (10 ml v/w) was used as a vehicle to facilitate mixing. After 4 weeks of treatment mice were sacrificed by C02 asphyxiation and plasma cholesterol and triglycerides were measured using commercially available kits (Roche*/Hitachi©).
# In a further study, performed as described above, the effects of Compound A, Compound B, and Compound C were compared with the effects of Reference Compound 1 ((Z)-3-(pent-2-en-1-yloxy)benzoic acid) and Reference Compound 2 ((Z)-4-(pent-2-en-1-yloxy)benzoic acid) on triglyceride levels. […] The results of this study are described in Example 17.
# [2] = Relative bodyweight in ob/ob AMLN mice; settings: 0.3 mmol/kg bw day, 4 weeks treatment, FIG. 11
# Description: ob/ob mice are consistently fibrosis (liver) prone when cholesterol (2%) and 40% fat (containing 18% trans-fatty acids) and 20% fructose are added to a high-caloric diet (i.e., AMLN diet). ob/ob mice on AMLN diet (termed ‘ob/ob AMLN mice’) develop steatohepatitis and fibrosis within a shorter timeframe (<12 weeks) compared with wild-type C57BL/6 mice (AMLN mice) fed the same diet. ob/ob AMLN mice provide an obese diet-induced model of NASH that also allows the study of effects on glycemic control.
# Thirty male ob/ob mice (5 weeks old) were fed the AMLN diet for 15 weeks then randomised into 3 groups of 10 mice/group to receive Compound B or Compound A (both at 0.3 mmol/kg bw day) or no treatment (vehicle) for a further 4 weeks. Assessment of the hepatic expression of key genes regulating plasma lipid concentrations (LDLr), hepatic fibrosis (collA1), bile acid transport/re-uptake (Slc51b and Slc10a2) and inflammation (CD68) was made via RNA sequencing at 4 weeks. To assess the effects of Compound B and Compound A on glycemic control, an oral glucose tolerance test (OGTT) was also performed at 3 weeks. An additional group of mice (n=5) were also treated with a PPAR-γ agonist (pioglitazone, 30 mg/kg bw day) was also included to compare effects upon bodyweight.
# [3] = test system: C57BL/6 mice; test: Hepatic steatosis in oral PN diet fed C57BL/6 mice, initial experiment (Oil Red O); settings: 19 days, 0.3 mmol/kg bw day in MCT by orogastric gavage
# Description: (§1) Male C57BL/6 mice, 6 to 8 weeks old at initiation of the experiments, were used for all experimental groups. Mice were fed either an ad libitum diet of standard rodent chow (calorie composition: 26% protein, 14% fat, 60% carbohydrates) and water or a parenteral nutrition (PN) solution that mimics the PN diet used in neonatal intensive care units. The PN solution was a fat-free, high-carbohydrate liquid diet (20% dextrose, 2% essential and nonessential amino acids, 0.2% pediatric trace elements, 0.5% pediatric multivitamins, 30 mEq of sodium, 20 mEq of potassium, 15 mEq of calcium (as calcium gluconate), 10 mEq of magnesium, 10 mEq of phosphate, 5 mEq of acetate, and 30 mEq of chloride per liter) administered as a single 50 mL bottle per cage which mice consumed ad libitum. […] Prince et al., JPEN J Parenter Enteral Nutr., 2014; 38(5): 608-616.
# In the initial experiment, only Compound A was tested. The results of this experiment are described in Example 14.
# Male C57BL/6 mice, 6 weeks old at initiation of experiments, were divided into three groups (10 mice per group). One group was fed an ad libitum diet of standard rodent chow and water. The group fed standard rodent chow received no additional treatments during the experimental period and served as a negative control group. The two other groups were fed the above-described PN diet. […]
# [4] = test system: C57BL/6 mice; test: Hepatic steatosis and organ mass in oral PN diet fed C57BL/6 mice, subsequent experiment at two dosages (H&E); settings: 19 days
# Description: as §1
# In a subsequent experiment, both Compound A and Compound B were tested at two dosages. The results of this experiment are described in Example 15.
# Male C57BL/6 mice, 6 to 8 weeks old at initiation of the experiments, were used for all experimental groups. One group was fed an ad libitum diet of standard rodent chow and water. The group fed standard rodent chow received no additional treatments during the experimental period and served as a negative control group. Seven other groups (10 mice per group) were fed the PN solution described above ad libitum.
# Of the seven groups that received the PN diet, each group received one of the following orogastric protocols administered every other day over 19 days: • (1) Saline: saline solution administered isovolumetric with the Omegaven® group; • (2) MCT: medium-chain triglyceride oil (MCT) (Nestle™ HealthCare Nutrition, Florham Park, NJ), at a dose of 7.4 g of fat/kg body weight; • (3) Omegaven®: Omegaven® (commercial fish oil lipid emulsion) at a dose of 2.4 g fat/kg body weight; • (4) Compound A LOW: Compound A at a dose of 0.3 mmol/kg bw day (diluted in MCT to 0.0375 mmol/mL, resulting in administration of 7.4 g of MCT/kg weight); • (5) Compound A HI: Compound A at a dose of 0.6 mmol/kg bw day (diluted in MCT to 0.075 mmol/mL, resulting in administration of 7.4 g of MCT/kg weight); • (6) Compound B LOW: Compound B at a dose of 0.3 mmol/kg bw day (diluted in MCT to 0.0375 mmol/mL, resulting in administration of 7.4 g of MCT/kg weight); and • (7) Compound B HI: Compound B at a dose of 0.6 mmol/kg bw day (diluted in MCT to 0.075 mmol/mL, resulting in administration of 7.4 g of MCT/kg weight).
# After 19 days of treatment, organs were harvested, including the liver, kidney, and spleen, which were analyzed for relative weight between each group. Livers were also fixed and frozen on dry ice, then stored at −80° C. for hematoxylin and eosin (H&E) stain analysis and Oil Red O analysis.
# [5] = high-fat high-cholesterol diet, 4 weeks treatment
# [6] = high-fat high-cholesterol diet, 4 weeks treatment, dose 0.1 mmol/kg bw/day
# [7] = oral PN diet, high and low dosages, FIG. 18
compound,measurement,setting,value
"CCCCCOc1cccc(C(=O)O)c1C [Compound A, 2-methyl-3-(pentyloxy)benzoic acid]",triglyceride levels over 4 weeks,"[1]; further study with reference compounds, 0.3 mmol/kg bw/day, FIG. 31",significantly reduced
same,plasma TG versus vehicle,[1]; [5],significantly reduce
same,total plasma cholesterol versus vehicle,[1]; [5],significantly reduce
same,Reduction in plasma TG vs control (%),[1]; [6],79*** %
same,Reduction in plasma cholesterol vs control (%),[1]; [6],30*** %
same,relative bodyweight versus vehicle,[2],significantly decreased
same,development of steatosis induced by an oral PN diet (Red Oil O stain in isolated liver sections),[3]; FIG. 13,prevented the development of steatosis
same,liver architecture,[3]; oral PN diet,Normal liver architecture
same,development of steatosis induced by an oral PN diet (H&E stain in isolated liver sections),"[4]; 0.3 and 0.6 mmol/kg bw day in MCT by orogastric gavage, FIGS. 14-17",prevented the development of steatosis
same,body mass vs chow-fed or PN-fed saline groups,[4]; [7],not significantly different
same,liver/body mass vs chow-fed or PN-fed saline groups,[4]; [7],not significantly different
same,spleen/body mass vs chow-fed or PN-fed saline groups,[4]; [7],not significantly different

# Reference: patent US12473249B2, “Aromatic compounds and pharmaceutical uses thereof” (BASF AS, priority 2018, dated 2025)
